# Columns and labels:
# Test in all cases: KINOMEscan
# Type in all cases: binding
# Details in all cases: 35 at 1 µM; read-out: % inhibition
# ABL1-phosphorylated = target: T1, ABL1-phosphorylated (Homo sapiens, UniProt P00519)
# T1 construct: purchased Eurofins DiscoverX (KINOMEscan)
# Protocol: (§1) KinomeScan Assay on 35 was performed as previously described at EuroFins DiscoverX (Fremont, CA, USA).
# BRSK1 = target: T2, BRSK1 (Homo sapiens, UniProt Q8TDC3)
# T2 construct: purchased Eurofins DiscoverX (KINOMEscan)
# Protocol: as §1
# CAMK1 = target: T3, CAMK1 (Homo sapiens, UniProt Q14012)
# T3 construct: purchased Eurofins DiscoverX (KINOMEscan)
# Protocol: as §1
# CAMK1B = target: T4, CAMK1B (Homo sapiens, UniProt Q6P2M8)
# T4 construct: purchased Eurofins DiscoverX (KINOMEscan)
# Protocol: as §1
# CDK2 = target: T5, CDK2 (Homo sapiens, UniProt P24941)
# T5 construct: purchased Eurofins DiscoverX (KINOMEscan)
# Protocol: as §1
# CDK4-cyclinD1 = target: T6, CDK4-cyclinD1 (Homo sapiens, UniProt P11802)
# T6 construct: purchased Eurofins DiscoverX (KINOMEscan)
# Protocol: as §1
# CDKL1 = target: T7, CDKL1 (Homo sapiens, UniProt Q00532)
# T7 construct: purchased Eurofins DiscoverX (KINOMEscan)
# Protocol: as §1
# CDKL3 = target: T8, CDKL3 (Homo sapiens, UniProt Q8IVW4)
# T8 construct: purchased Eurofins DiscoverX (KINOMEscan)
# Protocol: as §1
# CSNK1A1L = target: T9, CSNK1A1L (Homo sapiens, UniProt Q8N752)
# T9 construct: purchased Eurofins DiscoverX (KINOMEscan)
# Protocol: as §1
# CSNK1G3 = target: T10, CSNK1G3 (Homo sapiens, UniProt Q9Y6M4)
# T10 construct: purchased Eurofins DiscoverX (KINOMEscan)
# Protocol: as §1
# DCAMKL2 = target: T11, DCAMKL2 (Homo sapiens, UniProt Q8N568)
# T11 construct: purchased Eurofins DiscoverX (KINOMEscan)
# Protocol: as §1
# EGFR(T790M) = target: T12, EGFR(T790M) (Homo sapiens, UniProt P00533, T790M)
# T12 construct: purchased Eurofins DiscoverX (KINOMEscan)
# Protocol: as §1
# ERK1 = target: T13, ERK1 (Homo sapiens, UniProt P27361)
# T13 construct: purchased Eurofins DiscoverX (KINOMEscan)
# Protocol: as §1
# FGFR2 = target: T14, FGFR2 (Homo sapiens, UniProt P21802)
# T14 construct: purchased Eurofins DiscoverX (KINOMEscan)
# Protocol: as §1
# GRK4 = target: T15, GRK4 (Homo sapiens, UniProt P32298)
# T15 construct: purchased Eurofins DiscoverX (KINOMEscan)
# Protocol: as §1
# IKK-alpha = target: T16, IKK-alpha (Homo sapiens, UniProt O15111)
# T16 construct: purchased Eurofins DiscoverX (KINOMEscan)
# Protocol: as §1
# KIT(V559D) = target: T17, KIT(V559D) (Homo sapiens, UniProt P10721, V559D)
# T17 construct: purchased Eurofins DiscoverX (KINOMEscan)
# Protocol: as §1
# LKB1 = target: T18, LKB1 (Homo sapiens, UniProt Q15831)
# T18 construct: purchased Eurofins DiscoverX (KINOMEscan)
# Protocol: as §1
# MAP3K15 = target: T19, MAP3K15 (Homo sapiens, UniProt Q6ZN16)
# T19 construct: purchased Eurofins DiscoverX (KINOMEscan)
# Protocol: as §1
# MARK3 = target: T20, MARK3 (Homo sapiens, UniProt P27448)
# T20 construct: purchased Eurofins DiscoverX (KINOMEscan)
# Protocol: as §1
# MEK1 = target: T21, MEK1 (Homo sapiens, UniProt Q02750)
# T21 construct: purchased Eurofins DiscoverX (KINOMEscan)
# Protocol: as §1
# MKNK1 = target: T22, MKNK1 (Homo sapiens, UniProt Q9BUB5)
# T22 construct: purchased Eurofins DiscoverX (KINOMEscan)
# Protocol: as §1
# MLCK = target: T23, MLCK (Homo sapiens, UniProt Q32MK0)
# T23 construct: purchased Eurofins DiscoverX (KINOMEscan)
# Protocol: as §1
# MLK3 = target: T24, MLK3 (Homo sapiens, UniProt Q16584)
# T24 construct: purchased Eurofins DiscoverX (KINOMEscan)
# Protocol: as §1
# MST1 = target: T25, MST1 (Homo sapiens, UniProt Q13043)
# T25 construct: purchased Eurofins DiscoverX (KINOMEscan)
# Protocol: as §1
# OSR1 = target: T26, OSR1 (Homo sapiens, UniProt O95747)
# T26 construct: purchased Eurofins DiscoverX (KINOMEscan)
# Protocol: as §1
# PCTK2 = target: T27, PCTK2 (Homo sapiens, UniProt Q00537)
# T27 construct: purchased Eurofins DiscoverX (KINOMEscan)
# Protocol: as §1
# PHKG2 = target: T28, PHKG2 (Homo sapiens, UniProt P15735)
# T28 construct: purchased Eurofins DiscoverX (KINOMEscan)
# Protocol: as §1
# PIK3CB = target: T29, PIK3CB (Homo sapiens, UniProt P42338)
# T29 construct: purchased Eurofins DiscoverX (KINOMEscan)
# Protocol: as §1
# PRKCQ = target: T30, PRKCQ (Homo sapiens, UniProt Q04759)
# T30 construct: purchased Eurofins DiscoverX (KINOMEscan)
# Protocol: as §1
# PRKD3 = target: T31, PRKD3 (Homo sapiens, UniProt O94806)
# T31 construct: purchased Eurofins DiscoverX (KINOMEscan)
# Protocol: as §1
# RET(M918T) = target: T32, RET(M918T) (Homo sapiens, UniProt P07949, M918T)
# T32 construct: purchased Eurofins DiscoverX (KINOMEscan)
# Protocol: as §1
# RET(V804L) = target: T33, RET(V804L) (Homo sapiens, UniProt P07949, V804L)
# T33 construct: purchased Eurofins DiscoverX (KINOMEscan)
# Protocol: as §1
# RIOK1 = target: T34, RIOK1 (Homo sapiens, UniProt Q9BRS2)
# T34 construct: purchased Eurofins DiscoverX (KINOMEscan)
# Protocol: as §1
# RIOK3 = target: T35, RIOK3 (Homo sapiens, UniProt O14730)
# T35 construct: purchased Eurofins DiscoverX (KINOMEscan)
# Protocol: as §1
# [1] = target: T36, RSK3(Kin.Dom.1-N-terminal) (Homo sapiens, UniProt Q15349)
# T36 construct: RSK3(Kin.Dom.1-N-terminal); purchased Eurofins DiscoverX (KINOMEscan)
# Protocol: as §1
# [2] = target: T37, RSK3(Kin.Dom.2-C-terminal) (Homo sapiens, UniProt Q15349)
# T37 construct: RSK3(Kin.Dom.2-C-terminal); purchased Eurofins DiscoverX (KINOMEscan)
# Protocol: as §1
# TAOK1 = target: T38, TAOK1 (Homo sapiens, UniProt Q7L7X3)
# T38 construct: purchased Eurofins DiscoverX (KINOMEscan)
# Protocol: as §1
# TNK2 = target: T39, TNK2 (Homo sapiens, UniProt Q07912)
# T39 construct: purchased Eurofins DiscoverX (KINOMEscan)
# Protocol: as §1
# TNNI3K = target: T40, TNNI3K (Homo sapiens, UniProt Q59H18)
# T40 construct: purchased Eurofins DiscoverX (KINOMEscan)
# Protocol: as §1
# TRKB = target: T41, TRKB (Homo sapiens, UniProt Q16620)
# T41 construct: purchased Eurofins DiscoverX (KINOMEscan)
# Protocol: as §1
# WNK4 = target: T42, WNK4 (Homo sapiens, UniProt Q96J92)
# T42 construct: purchased EuroFins DiscoverX (Fremont, CA, USA)
# Protocol: as §1
# T4 sequence (Q6P2M8 whole entry): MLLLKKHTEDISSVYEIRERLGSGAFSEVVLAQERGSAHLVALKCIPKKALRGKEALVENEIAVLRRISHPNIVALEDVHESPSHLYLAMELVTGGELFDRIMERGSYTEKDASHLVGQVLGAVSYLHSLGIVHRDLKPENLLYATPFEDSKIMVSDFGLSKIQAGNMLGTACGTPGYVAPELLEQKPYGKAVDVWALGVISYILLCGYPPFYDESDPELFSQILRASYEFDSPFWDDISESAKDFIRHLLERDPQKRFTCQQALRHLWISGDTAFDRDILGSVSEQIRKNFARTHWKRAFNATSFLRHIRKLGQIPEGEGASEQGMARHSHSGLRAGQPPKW
# T41 sequence (Q16620 32-822): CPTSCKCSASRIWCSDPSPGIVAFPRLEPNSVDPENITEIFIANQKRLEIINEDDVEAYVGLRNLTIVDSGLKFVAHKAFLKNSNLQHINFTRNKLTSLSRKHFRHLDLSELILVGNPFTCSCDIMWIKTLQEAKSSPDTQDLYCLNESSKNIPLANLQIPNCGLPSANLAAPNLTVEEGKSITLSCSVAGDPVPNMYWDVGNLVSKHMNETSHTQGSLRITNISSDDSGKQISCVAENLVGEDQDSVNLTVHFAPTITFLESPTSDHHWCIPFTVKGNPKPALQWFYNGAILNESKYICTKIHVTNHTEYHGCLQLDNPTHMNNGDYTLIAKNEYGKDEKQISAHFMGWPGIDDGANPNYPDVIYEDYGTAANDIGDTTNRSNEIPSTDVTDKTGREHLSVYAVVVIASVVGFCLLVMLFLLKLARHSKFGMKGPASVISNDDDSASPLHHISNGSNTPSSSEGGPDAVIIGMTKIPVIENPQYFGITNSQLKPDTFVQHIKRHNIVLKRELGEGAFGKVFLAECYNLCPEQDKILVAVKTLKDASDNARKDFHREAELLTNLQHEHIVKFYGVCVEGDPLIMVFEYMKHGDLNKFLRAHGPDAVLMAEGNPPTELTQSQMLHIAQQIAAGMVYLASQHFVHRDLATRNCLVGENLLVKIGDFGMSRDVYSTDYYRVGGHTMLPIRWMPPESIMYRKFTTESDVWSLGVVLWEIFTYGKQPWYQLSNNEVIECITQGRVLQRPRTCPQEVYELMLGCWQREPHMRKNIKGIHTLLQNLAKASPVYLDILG
# T15 sequence (P32298 whole entry): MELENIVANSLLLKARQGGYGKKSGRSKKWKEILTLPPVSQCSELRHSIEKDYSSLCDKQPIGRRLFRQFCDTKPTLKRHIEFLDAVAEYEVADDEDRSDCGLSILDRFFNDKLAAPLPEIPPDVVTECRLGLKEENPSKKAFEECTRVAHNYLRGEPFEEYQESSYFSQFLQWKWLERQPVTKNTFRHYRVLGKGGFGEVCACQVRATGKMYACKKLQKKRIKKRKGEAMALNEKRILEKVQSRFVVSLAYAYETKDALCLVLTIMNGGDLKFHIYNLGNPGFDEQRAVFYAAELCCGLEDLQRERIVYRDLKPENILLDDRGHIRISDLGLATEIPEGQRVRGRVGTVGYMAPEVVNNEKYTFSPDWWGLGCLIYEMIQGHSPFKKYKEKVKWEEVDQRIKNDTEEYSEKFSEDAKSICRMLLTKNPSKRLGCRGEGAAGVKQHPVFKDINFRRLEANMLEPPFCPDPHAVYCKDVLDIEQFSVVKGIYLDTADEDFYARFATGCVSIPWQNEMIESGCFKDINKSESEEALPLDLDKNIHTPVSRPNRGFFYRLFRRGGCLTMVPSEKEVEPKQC
# T22 sequence (Q9BUB5 whole entry): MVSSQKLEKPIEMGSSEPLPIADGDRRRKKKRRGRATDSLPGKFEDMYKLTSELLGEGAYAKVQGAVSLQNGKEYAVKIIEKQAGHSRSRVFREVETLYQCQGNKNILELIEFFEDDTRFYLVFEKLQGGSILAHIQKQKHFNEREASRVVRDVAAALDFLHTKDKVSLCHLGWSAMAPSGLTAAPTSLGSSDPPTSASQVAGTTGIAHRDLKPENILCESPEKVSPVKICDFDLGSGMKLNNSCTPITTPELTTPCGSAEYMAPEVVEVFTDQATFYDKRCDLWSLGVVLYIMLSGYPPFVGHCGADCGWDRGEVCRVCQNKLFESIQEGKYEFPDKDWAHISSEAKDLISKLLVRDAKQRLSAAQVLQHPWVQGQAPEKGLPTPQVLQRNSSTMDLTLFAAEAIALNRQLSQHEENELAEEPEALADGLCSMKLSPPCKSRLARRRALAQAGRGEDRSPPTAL
# T7 sequence (Q00532 whole entry): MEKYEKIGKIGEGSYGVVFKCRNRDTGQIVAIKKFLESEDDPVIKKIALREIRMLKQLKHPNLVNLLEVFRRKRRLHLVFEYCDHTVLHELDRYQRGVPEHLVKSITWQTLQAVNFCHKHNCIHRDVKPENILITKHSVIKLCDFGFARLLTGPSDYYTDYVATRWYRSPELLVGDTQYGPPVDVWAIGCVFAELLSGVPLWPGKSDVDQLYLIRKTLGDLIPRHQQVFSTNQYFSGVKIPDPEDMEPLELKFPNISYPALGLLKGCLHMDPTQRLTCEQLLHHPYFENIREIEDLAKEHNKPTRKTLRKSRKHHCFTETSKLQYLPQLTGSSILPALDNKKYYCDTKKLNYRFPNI
# T3 sequence (Q14012 whole entry): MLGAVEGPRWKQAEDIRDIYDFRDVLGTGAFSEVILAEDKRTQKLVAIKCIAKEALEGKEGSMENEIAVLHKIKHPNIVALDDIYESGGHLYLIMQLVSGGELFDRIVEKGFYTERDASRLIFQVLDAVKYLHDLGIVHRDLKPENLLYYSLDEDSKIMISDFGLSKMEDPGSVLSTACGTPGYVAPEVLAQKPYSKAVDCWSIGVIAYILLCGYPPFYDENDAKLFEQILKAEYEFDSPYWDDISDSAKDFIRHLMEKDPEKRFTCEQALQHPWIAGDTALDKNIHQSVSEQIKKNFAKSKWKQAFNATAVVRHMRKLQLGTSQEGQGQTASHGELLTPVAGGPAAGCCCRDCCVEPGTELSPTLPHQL
# T28 sequence (P15735 whole entry): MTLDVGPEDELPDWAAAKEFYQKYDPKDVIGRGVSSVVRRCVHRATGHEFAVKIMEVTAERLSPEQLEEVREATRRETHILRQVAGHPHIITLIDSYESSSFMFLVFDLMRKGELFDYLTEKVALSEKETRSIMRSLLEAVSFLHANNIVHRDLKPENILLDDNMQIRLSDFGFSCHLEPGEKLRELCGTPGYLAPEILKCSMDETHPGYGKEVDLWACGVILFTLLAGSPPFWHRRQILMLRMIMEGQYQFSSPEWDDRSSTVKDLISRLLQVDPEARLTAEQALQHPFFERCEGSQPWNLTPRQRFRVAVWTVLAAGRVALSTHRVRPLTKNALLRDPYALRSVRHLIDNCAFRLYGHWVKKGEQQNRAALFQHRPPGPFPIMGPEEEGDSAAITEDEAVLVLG
# T25 sequence (Q13043 whole entry): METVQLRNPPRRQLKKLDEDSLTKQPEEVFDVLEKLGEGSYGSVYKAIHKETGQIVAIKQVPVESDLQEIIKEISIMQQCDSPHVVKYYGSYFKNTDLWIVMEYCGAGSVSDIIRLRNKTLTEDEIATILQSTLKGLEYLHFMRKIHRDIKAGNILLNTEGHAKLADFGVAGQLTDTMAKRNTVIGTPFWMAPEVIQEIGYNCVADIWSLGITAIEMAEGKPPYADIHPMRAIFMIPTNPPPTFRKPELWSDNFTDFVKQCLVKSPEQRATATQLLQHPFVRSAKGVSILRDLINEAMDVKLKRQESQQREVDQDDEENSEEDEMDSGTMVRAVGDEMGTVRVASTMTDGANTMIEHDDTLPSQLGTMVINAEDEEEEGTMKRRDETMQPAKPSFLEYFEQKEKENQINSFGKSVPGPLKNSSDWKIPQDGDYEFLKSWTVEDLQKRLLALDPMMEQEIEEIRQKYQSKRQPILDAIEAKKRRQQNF
# T1 sequence (P00519 whole entry): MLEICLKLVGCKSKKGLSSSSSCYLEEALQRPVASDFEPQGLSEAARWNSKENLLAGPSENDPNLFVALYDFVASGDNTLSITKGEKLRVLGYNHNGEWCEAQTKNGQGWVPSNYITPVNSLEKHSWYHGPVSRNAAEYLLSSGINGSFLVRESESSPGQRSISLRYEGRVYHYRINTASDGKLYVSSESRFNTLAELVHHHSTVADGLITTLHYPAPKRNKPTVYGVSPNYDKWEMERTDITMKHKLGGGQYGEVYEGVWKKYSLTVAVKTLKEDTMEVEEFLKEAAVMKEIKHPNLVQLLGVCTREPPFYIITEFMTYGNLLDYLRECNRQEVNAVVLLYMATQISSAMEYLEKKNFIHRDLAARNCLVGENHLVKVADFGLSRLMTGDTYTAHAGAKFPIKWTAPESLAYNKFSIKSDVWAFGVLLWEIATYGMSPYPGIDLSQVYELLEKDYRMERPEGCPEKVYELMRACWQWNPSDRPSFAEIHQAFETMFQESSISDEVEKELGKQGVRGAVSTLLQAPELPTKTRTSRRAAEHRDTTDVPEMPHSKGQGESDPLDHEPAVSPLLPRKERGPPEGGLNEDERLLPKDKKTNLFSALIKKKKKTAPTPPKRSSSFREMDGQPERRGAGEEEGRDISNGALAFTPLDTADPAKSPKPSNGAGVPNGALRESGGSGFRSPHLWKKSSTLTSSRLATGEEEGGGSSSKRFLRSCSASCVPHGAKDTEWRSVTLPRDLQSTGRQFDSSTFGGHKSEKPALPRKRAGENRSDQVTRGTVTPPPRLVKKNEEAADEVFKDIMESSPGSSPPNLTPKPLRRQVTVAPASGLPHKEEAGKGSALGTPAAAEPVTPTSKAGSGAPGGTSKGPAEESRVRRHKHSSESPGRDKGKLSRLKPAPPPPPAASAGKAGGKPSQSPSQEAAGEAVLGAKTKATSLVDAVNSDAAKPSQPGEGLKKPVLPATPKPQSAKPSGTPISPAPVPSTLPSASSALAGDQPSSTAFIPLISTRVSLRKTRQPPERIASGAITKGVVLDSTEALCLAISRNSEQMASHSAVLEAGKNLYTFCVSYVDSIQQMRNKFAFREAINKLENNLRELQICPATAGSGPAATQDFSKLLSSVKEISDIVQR
smiles,measurement,setting,value
"Brc1ccc2nccc(Nc3ccc4cn[nH]c4c3)c2c1 [Compound 35, 6-Bromo-N-(1H-indazol-6-yl)quinolin-4-amine]",activity at 1 µM,ABL1-phosphorylated,46%
same,activity at 1 µM,BRSK1,100%
same,activity at 1 µM,CAMK1,100%
same,activity at 1 µM,CAMK1B,92%
same,activity at 1 µM,CDK2,100%
same,activity at 1 µM,CDK4-cyclinD1,100%
same,activity at 1 µM,CDKL1,47%
same,activity at 1 µM,CDKL3,100%
same,activity at 1 µM,CSNK1A1L,96%
same,activity at 1 µM,CSNK1G3,100%
same,activity at 1 µM,DCAMKL2,100%
same,activity at 1 µM,EGFR(T790M),78%
same,activity at 1 µM,ERK1,100%
same,activity at 1 µM,FGFR2,100%
same,activity at 1 µM,GRK4,100%
same,activity at 1 µM,IKK-alpha,100%
same,activity at 1 µM,KIT(V559D),100%
same,activity at 1 µM,LKB1,100%
same,activity at 1 µM,MAP3K15,98%
same,activity at 1 µM,MARK3,100%
same,activity at 1 µM,MEK1,71%
same,activity at 1 µM,MKNK1,79%
same,activity at 1 µM,MLCK,100%
same,activity at 1 µM,MLK3,100%
same,activity at 1 µM,MST1,100%
same,activity at 1 µM,OSR1,76%
same,activity at 1 µM,PCTK2,100%
same,activity at 1 µM,PHKG2,95%
same,activity at 1 µM,PIK3CB,94%
same,activity at 1 µM,PRKCQ,88%
same,activity at 1 µM,PRKD3,100%
same,activity at 1 µM,RET(M918T),100%
same,activity at 1 µM,RET(V804L),97%
same,activity at 1 µM,RIOK1,100%
same,activity at 1 µM,RIOK3,100%
same,activity at 1 µM,[1],100%
same,activity at 1 µM,[2],100%
same,activity at 1 µM,TAOK1,95%
same,activity at 1 µM,TNK2,95%
same,activity at 1 µM,TNNI3K,100%
same,activity at 1 µM,TRKB,85%
same,activity at 1 µM,WNK4,100%

# — publication PMC6891286, “Towards the Development of an In vivo Chemical Probe for Cyclin G Associated Kinase (GAK)” (Molecules, 2019)
